Assay results from article PMC8261488, “Contraceptive progestins with androgenic properties stimulate breast epithelial cell proliferation” (EMBO Molecular Medicine, 2021).

Legend:
Format in all cases: cell-based
[1] = test system: human breast tissue microstructures (EpCAM+ cells); experiment: RNA sequencing of EpCAM+ cells from human breast tissue microstructures stimulated ex vivo; settings: 14–18 h exposure, n = 3
From the text: Having ascertained with mammary tissue from inbred mice that androgenic and anti‐androgenic progestins have different effects on the expression of important PR target genes, we set out to assess the transcriptional response to PR signaling in the human breast epithelium. In view of our goal to perform in vivo experiments with the natural ligand progesterone, we compared the effects of progesterone to those of its stable analog R5020 which is commonly used for in vitro experiments on breast epithelial cells. For this, we used an ex vivo approach with human breast tissue similar to the mouse organoid technique used above that maintains hormone responsiveness (Tanos et al, 2013; Sflomos et al, 2015). In brief, 3 fresh mammoplasty tissue from women with follicular phase progesterone levels were cut into 1 mm^3 pieces and aliquoted for digestion with collagenase and concomitant exposure to either vehicle, R5020, or progesterone for 14–18 h. Tissue microstructures that contain epithelial cells, immune cells, and fibroblasts in varying proportions were recovered. To reduce interpatient variation as far as it relates to different ratios of various cell types, at the end of the treatment, the tissue microstructures were dissociated to single cells and enriched for epithelial cells by FACS sorting with antibodies against the epithelial cell surface marker EpCAM (Fig 2A). The EpCAM^+ cells were processed for RNA sequencing. […] Progesterone affected expression levels of 65 genes, whereas R5020 affected 112 genes, including RANKL (adj.P < 0.05) (Appendix Fig S2A). More than 90% of the progesterone‐induced gene expression changes were induced by R5020 (Fig 2C). […] R5020 induced higher‐fold changes as indicated by the estimated slope of the curve being > 1 (P < 0.0001). […]
All experiments conformed to the principles set out in the WMA Declaration of Helsinki and the Department of Health and Human Services Belmont Report. […] Human tissue samples were mechanically and enzymatically dissociated, single cells were prepared, counted, and spin infected using Lenti‐ONE CMV‐GFP(2A)Luc2 WPRE VSV, V621004001, or pR980 Luc2GFP (GEGTECH) at a multiplicity of infection of 1 at 2.500 rpm for 3 h at room temperature in 500 μl of serum‐free medium. […]
(§1) RNAseq libraries were prepared using Truseq Stranded RNA producing single‐end reads of 100 bp and sequenced on Illumina Hiseq 2500 instrument. […]
(§2) Sequencing reads were quality controlled using FastQC (v0.11.8) (Wingett & Andrews, 2018). Mouse raw reads were aligned to the mouse genome (mm9) and human raw reads to the human genome (hg19) using TopHat (v2.0.11) (Kim et al, 2013). […]

[2] = test system: Wnt4; experiment: Wnt4 transcript levels by RT-PCR in mouse mammary organoids stimulated ex vivo
Protocol: (§3) Next, we stimulated mouse mammary organoids derived from several BalbC females with R5020 or different progestins (Fig 1A). […] No significant change in Rankl and Wnt4 transcript levels was detected during the first 2 h (Appendix Fig S1D). By 6 h of R5020 stimulation, Rankl and Wnt4 transcript levels increased 22.4 and 5.8‐fold over the vehicle‐treated control, respectively.
(§4) Animal experiments were performed in accordance with protocol approved by the Service de la Consommation et des Affaires vétérinaires of Canton de Vaud (VD 1865.3, VD 1865.4). NOD. Cg‐Prkdc^scid Il2rg^tm1Wjl/SzJ mice (Charles River), BalbC, and C57Bl6 breeders were purchased from Jackson Laboratories. Mammary glands were isolated from 18‐ to 35‐week‐old mice, lymph nodes removed, minced with surgical blades, and digested in DMEM/F12, 1% penicillin/streptomycin B with collagenase A 0.25 mg/ml (Roche). […] Fat was removed, and pellet containing organoids washed with phosphate‐buffered saline (PBS), resuspended 5 min in 3 ml red cell blood lysis buffer and washed twice with PBS.
(§5) Human breast microstructures and mouse organoids were homogenized in Trizol (Invitrogen). Aqueous phase containing RNA was chloroform extracted and processed with miRNeasy extraction kit (Qiagen). cDNA was synthesized using random p(dN)6 primers (Roche) and MMLV reverse transcriptase (Invitrogen). SYBR Green PCR Core Reagent System (Qiagen) was used for semi‐quantitative real time (RT‐PCR) using the following primers.

[3] = test system: mouse mammary organoids; experiment: RNA sequencing of mouse mammary organoids stimulated ex vivo with R5020; settings: R5020 20 nM, 6 h, n = 3
From the text: To test this hypothesis, we sought for biological readouts in physiologically relevant models. First, we recurred to using an ex vivo assay for the transcriptional response of the mouse mammary epithelium to hormones. We isolated mammary glands from several inbred adult female mice, treated them mechanically and enzymatically to generate epithelial‐enriched organoids, which remain hormone‐responsive (Ayyanan et al, 2011), and exposed them either to vehicle or to the stable progesterone mimic promegestone (R5020, 20 nM) for 6 h and performed RNA sequencing (Fig 1A). Three independent experiments were performed, and principal component analysis (PCA) grouped the samples according to treatment (Fig 1B). […] Together, these observations confirm that PR signaling is intact in this ex vivo model and that the functionally important factors, Rankl and Wnt4, are robust PR target genes in the mouse mammary epithelium.
(§6) Animal experiments were performed in accordance with protocol approved by the Service de la Consommation et des Affaires vétérinaires of Canton de Vaud (VD 1865.3, VD 1865.4). NOD. Cg‐Prkdc^scid Il2rg^tm1Wjl/SzJ mice (Charles River), BalbC, and C57Bl6 breeders were purchased from Jackson Laboratories. Mammary glands were isolated from 18‐ to 35‐week‐old mice, lymph nodes removed, minced with surgical blades, and digested in DMEM/F12, 1% penicillin/streptomycin B with collagenase A 0.25 mg/ml (Roche). Tissue was concomitantly stimulated with hormones for 1, 2, or 6 h and centrifuged at 652 g for 5 min. Fat was removed, and pellet containing organoids washed with phosphate‐buffered saline (PBS), resuspended 5 min in 3 ml red cell blood lysis buffer and washed twice with PBS.
as §1, §2

[4] = test system: Rankl; experiment: Rankl transcript levels by RT-PCR in mouse mammary organoids stimulated ex vivo
Protocol: as §3, §4, §5

[5] = test system: Rankl; experiment: Rankl induction by R5020 or LNG in mouse mammary organoids co-treated with AR antagonists; settings: antagonist 100 µM, 6 h, C57Bl6-derived organoids
Protocol: (§7) Enzalutamide (100 µM) abrogated Rankl induction by R5020 (P < 0.05) but had no effect on Wnt4 induction (Fig 1H).
as §6, §5

[6] = test system: Wnt4; experiment: Wnt4 induction by R5020 or LNG in mouse mammary organoids co-treated with AR antagonists; settings: antagonist 100 µM, 6 h, C57Bl6-derived organoids
Protocol: as §7, §6, §5

[7] = BalbC females, 6 h of stimulation
[8] = BalbC-derived organoids, 24 h of stimulation

Structure (SMILES)	RANKL expression (variant stabilized gene expression values) [1]	WNT4 expression (variant stabilized gene expression values) [1]	Wnt4 transcript levels over vehicle-treated control [2, 7] [fold]	Wnt4 transcript induction [2, 8] [fold]	Wnt4 transcript induction ([2]; C57Bl/6 mice, 6 h, 20 nM) [fold]	Pgr transcripts, down-modulation (RNA sequencing) [3] [fold]	Rankl transcripts, induction over control samples (RNA sequencing) [3] [fold]	Wnt4 induction (RNA sequencing) [3] [fold]	Rankl transcript levels over vehicle-treated control [4, 7] [fold]	Rankl transcript induction [4, 8] [fold]	Rankl transcript induction ([4]; C57Bl/6 mice, 6 h, 20 nM) [fold]	effect of AR antagonist on Rankl induction by R5020 [5]	effect of AR antagonist on Wnt4 induction by R5020 [6]
CCC(=O)[C@@]1(C)CC[C@H]2[C@@H]3CCC4=CC(=O)CCC4=C3CC[C@@]21C [R5020, promegestone]	increased expression	increased expression	5.8	26	4.2	0.2	10.07	3.1	22.4	83	10.9	–	–
CC(O)(CS(=O)(=O)c1ccc(F)cc1)C(=O)Nc1ccc(C#N)c(C(F)(F)F)c1 (stereo not shown) [bicalutamide]	–	–	–	–	–	–	–	–	–	–	–	abrogated	no significant effect
